The record followed here is US20050208496A1, “Methods of testing for bronchial asthma or chronic obstructive pulmonary disease” (Genox Research, Inc., priority 2002, published 2005).

For the assay, the system named is mouse OVA antigen-exposed bronchial hypersensitivity model. Nature of the assay: Quantitative PCR (ABI 7700) of selected genes using cDNA of the mouse OVA antigen-exposed bronchial hypersensitivity model. It counts as in vivo. The following applies: OVA-administered group. The protocol:
Eighty-eight genes, most of which were recognized as genes whose expression levels were altered in human and mouse, were selected from the genes narrowed down in Section 4. A quantitative PCR assay was carried out with ABI 7700 using cDNA from the human goblet cell differentiation model and using cDNA from the mouse OVA antigen-exposed bronchial hypersensitivity model.
The primers and TaqMan probe used in the assay with ABI 7700 were designed based on the information on the sequence of each gene utilizing Primer Express (PE Biosystems). The 5′ and 3′ ends of the TaqMan probe were labeled with FAM (6-carboxy-fluorescein) and TAMRA (6-carboxy-N,N,N′,N′-tetramethylrhodamine), respectively. The nucleotide sequences of oligonucleotides for the forward primer (F), reverse primer (R), and TaqMan probe (TP) for each gene are shown below. […]
Furthermore, similar quantitative analyses for the β-actin gene and the glyceraldehyde-3-phosphate dehydrogenase (GAPDH) gene as internal standards for correction were carried out to correct the difference of cDNA concentration in a sample. The copy number of the gene of interest was determined by correcting based on the determined copy numbers for the genes. […]

For “ovalbumin [OVA antigen, ovalbumin antigen used for sensitization and inhalation to induce bronchial hypersensitivity in mice]”, the “expression levels of the respective genes (quantitative PCR, corrected with β-actin)” value is listed as “significant variations”.
